Experimental data as given in US20190343908A1, “Therapeutic Combination for the Treatment of Cancer” (Nerium Biotechnology Inc., priority 2011, published 2019).

Tests used:
[1] = system: LNCaP prostate cancer cell line; assay: Methyl-Tetrazolium viability assay, LNCaP; format: cell-based, human; settings: for ABSORBANCE: LNCaP, 0.1 μg/mL cisplatin
Text: The Methyl-Tetrazolium dye assay measures the activity of enzymes in mitochondria. The dye precursor is taken up by cells, where it undergoes reduction to the purple formazan. It measures only the mitochondrial activity and, thus, it is not always a reliable indication of whether the cells themselves are alive or dead, since even a recently dead cell has […] enzyme activity in mitochondria. Intracellular glucose concentration, pH, and time before assay all affect the measurements.
(§1) The Methyl Tetrazolium, Sulforhodamine B, and Crystal Violet assays were used to assess cell viabilities. The incubation times were 24 hours, 48 hours, and 72 hours. The Nerium oleander extract Anvirzel™ (a hot water extract of oleander obtained from Salud Integral, Honduras) was tested in concentrations ranging from 0.01 ng/mL to 10 ng/mL.
(§2) Cells were detached by trypsinization (Trypsin-0.25% EDTA, Invitrogen, 25200-072) during the logarithmic phase of culture growth and plated in 96-well plates (18.000 cells/well) (Corning, Costar 359) in a final volume of 200 μl of medium per well. […] The absorbance was measured after 24 hours, 48 hours, and 72 hours of incubation.
For the Methyl-Tetrazolium assay, the dye (Sigma, M2128; 5 mg/mL, diluted in phosphate-buffered saline) was added to each well and plates were incubated for 3 hours at 37° C. After the end of the incubation period, the medium was discarded and the cells were rinsed with phosphate-buffered saline. Finally, the formazan crystals were dissolved in dimethylsulphoxide (Sigma, D4540).
(§3) The optical density of each plate was measured on a μQuant spectrophotometer and the data were analyzed with Gen5 software (μQuant Biomolecular Spectrophotometer MQX200 and Gen5™ Microplate Data Collection & Analysis software, BioTek® Instruments. Inc, April 2008). Absorbance was measured at 570 nm for all assays and a second wavelength was measured in order to subtract noise. For the Methyl-Tetrazolium assay this second wavelength was 630 nm and for the Sulforhodamine B and Crystal Violet assays it was 690 nm.

[2] = system: A375 melanoma cancer cell line; assay: Crystal Violet viability assay, A375; format: cell-based, human; settings: for ABSORBANCE: 0.1 μg/mL cisplatin; for Average absorbance, CVE 24 h / Average absorbance, CVE 48 h / Average absorbance, CVE 72 h: A375 Run 1
Text: Three different viability assays were chosen to complement each other and yielded results dependent on concentration and cell line: the Methyl Tetrazolium dye assay, the Sulforhodamine B fluorescent dye assay, and the Crystal Violet dye assay.
The Sulforhodamine B and Crystal Violet assays provide information about protein and were used to complement the Methyl-Tetrazolium dye assay. […] It is used for the quantification of cellular proteins of cultured cells. The assay using Crystal Violet, a dye that binds electrostatically to proteins and stains DNA, provides a reliable, simple assay for measuring viability of cells.
as §1, §2
For the Crystal Violet assay, the medium was removed from the 96-well plates, the plates rinsed with PBS (Sigma, P3813) and then the cells were […] by the addition of 10% formalin (MERCK, 1.04003.2500) for 20 minutes at RT. Formalin was removed and 0.25% aqueous crystal violet (Sigma, HT901), dissolved in water, was added for 10 minutes at RT. Unbound Crystal Violet was rinsed by washing with water and finally 33% acetic acid was added to dissolve the dye.
as §3

N.N.[Cl][Pt][Cl] [cisplatin]
MTT Average ([1]; LNCaP Run 3, 24 h, 0.1 μg/ml CDDP): 0.11
MTT Average ([1]; LNCaP Run 3, 24 h, 1 μg/ml CDDP): 0.008
MTT Average ([1]; LNCaP Run 3, 24 h, 10 μg/ml CDDP): 0.017
MTT Average ([1]; LNCaP Run 3, 24 h, 100 μg/ml CDDP): 0.006
MTT Average ([1]; LNCaP Run 3, 48 h, 0.1 μg/ml CDDP): 0.157
MTT Average ([1]; LNCaP Run 3, 48 h, 1 μg/ml CDDP): 0.011
MTT Average ([1]; LNCaP Run 3, 48 h, 10 μg/ml CDDP): 0.009
MTT Average ([1]; LNCaP Run 3, 48 h, 100 μg/ml CDDP): 0.009
MTT Average ([1]; LNCaP Run 3, 72 h, 0.1 μg/ml CDDP): 0.171
MTT Average ([1]; LNCaP Run 3, 72 h, 1 μg/ml CDDP): 0.01
MTT Average ([1]; LNCaP Run 3, 72 h, 10 μg/ml CDDP): 0.009
MTT Average ([1]; LNCaP Run 3, 72 h, 100 μg/ml CDDP): 0.008
ABSORBANCE ([1]; 48 h): 0.161
ABSORBANCE ([1]; 72 h): 0.17
Average MTT 24 h ([1]; Run 1, 0.1 μg/ml CDDP): 0.061
Average MTT 48 h ([1]; Run 1, 0.1 μg/ml CDDP): 0.116
Average MTT 24 h ([1]; Run 1, 1 μg/ml CDDP): 0.012
Average MTT 48 h ([1]; Run 1, 1 μg/ml CDDP): 0.015
Average MTT 72 h ([1]; Run 1, 1 μg/ml CDDP): 0.016
Average MTT 24 h ([1]; Run 1, 10 μg/ml CDDP): 0.02
Average MTT 48 h ([1]; Run 1, 10 μg/ml CDDP): 0.011
Average MTT 72 h ([1]; Run 1, 10 μg/ml CDDP): 0.01
Average MTT 24 h ([1]; Run 1, 100 μg/ml CDDP): 0.011
Average MTT 48 h ([1]; Run 1, 100 μg/ml CDDP): 0.017
Average MTT 72 h ([1]; Run 1, 100 μg/ml CDDP): 0.01
Average MTT 24 h ([1]; Run 2, 0.1 μg/ml CDDP): 0.136
Average MTT 48 h ([1]; Run 2, 0.1 μg/ml CDDP): 0.161
Average MTT 72 h ([1]; Run 2, 0.1 μg/ml CDDP): 0.17
Average MTT 24 h ([1]; Run 2, 1 μg/ml CDDP): 0.01
Average MTT 48 h ([1]; Run 2, 1 μg/ml CDDP): 0.016
Average MTT 72 h ([1]; Run 2, 1 μg/ml CDDP): 0.026
Average MTT 24 h ([1]; Run 2, 10 μg/ml CDDP): 0.014
Average MTT 48 h ([1]; Run 2, 10 μg/ml CDDP): 0.015
Average MTT 72 h ([1]; Run 2, 10 μg/ml CDDP): 0.012
Average MTT 24 h ([1]; Run 2, 100 μg/ml CDDP): 0.017
Average MTT 48 h ([1]; Run 2, 100 μg/ml CDDP): 0.015
Average MTT 72 h ([1]; Run 2, 100 μg/ml CDDP): 0.012
ABSORBANCE ([2]; A375, 48 h): 1.304
ABSORBANCE ([2]; A375, 72 h): 0.663
Average absorbance, CVE 24 h ([2]; 0.1 μg/ml CDDP): 0.607
Average absorbance, CVE 48 h ([2]; 0.1 μg/ml CDDP): 1.304
Average absorbance, CVE 72 h ([2]; 0.1 μg/ml CDDP): 0.663
Average absorbance, CVE 24 h ([2]; 1 μg/ml CDDP): 0.277
Average absorbance, CVE 48 h ([2]; 1 μg/ml CDDP): 0.396
Average absorbance, CVE 72 h ([2]; 1 μg/ml CDDP): 0.178
Average absorbance, CVE 24 h ([2]; 10 μg/ml CDDP): 0.32
Average absorbance, CVE 48 h ([2]; 10 μg/ml CDDP): 0.405
Average absorbance, CVE 72 h ([2]; 10 μg/ml CDDP): 0.282
Average absorbance, CVE 24 h ([2]; 100 μg/ml CDDP): 0.329
Average absorbance, CVE 48 h ([2]; 100 μg/ml CDDP): 0.288
Average absorbance, CVE 72 h ([2]; 100 μg/ml CDDP): 0.311
Average absorbance CVE ([2]; A375 Run 2, 24 h, 0.1 μg/ml CDDP): 0.603
Average absorbance CVE ([2]; A375 Run 2, 24 h, 1 μg/ml CDDP): 0.197
Average absorbance CVE ([2]; A375 Run 2, 24 h, 10 μg/ml CDDP): 0.246
Average absorbance CVE ([2]; A375 Run 2, 24 h, 100 μg/ml CDDP): 0.241
Average absorbance CVE ([2]; A375 Run 2, 48 h, 0.1 μg/ml CDDP): 1.204
Average absorbance CVE ([2]; A375 Run 2, 48 h, 1 μg/ml CDDP): 0.605
Average absorbance CVE ([2]; A375 Run 2, 48 h, 10 μg/ml CDDP): 0.514
Average absorbance CVE ([2]; A375 Run 2, 48 h, 100 μg/ml CDDP): 0.238
Average absorbance CVE ([2]; A375 Run 2, 72 h, 0.1 μg/ml CDDP): 1.312
Average absorbance CVE ([2]; A375 Run 2, 72 h, 1 μg/ml CDDP): 1.001
Average absorbance CVE ([2]; A375 Run 2, 72 h, 10 μg/ml CDDP): 0.729
Average absorbance CVE ([2]; A375 Run 2, 72 h, 100 μg/ml CDDP): 0.293
Average absorbance CVE ([2]; A375 Run 3, 24 h, 0.1 μg/ml CDDP): 0.856
Average absorbance CVE ([2]; A375 Run 3, 24 h, 1 μg/ml CDDP): 0.655
Average absorbance CVE ([2]; A375 Run 3, 24 h, 10 μg/ml CDDP): 0.529
Average absorbance CVE ([2]; A375 Run 3, 24 h, 100 μg/ml CDDP): 0.224
Average absorbance CVE ([2]; A375 Run 3, 48 h, 0.1 μg/ml CDDP): 0.92
Average absorbance CVE ([2]; A375 Run 3, 48 h, 1 μg/ml CDDP): 0.375
Average absorbance CVE ([2]; A375 Run 3, 48 h, 10 μg/ml CDDP): 0.309
Average absorbance CVE ([2]; A375 Run 3, 48 h, 100 μg/ml CDDP): 0.252
Average absorbance CVE ([2]; A375 Run 3, 72 h, 0.1 μg/ml CDDP): 0.961
Average absorbance CVE ([2]; A375 Run 3, 72 h, 1 μg/ml CDDP): 0.388
Average absorbance CVE ([2]; A375 Run 3, 72 h, 10 μg/ml CDDP): 0.344
Average absorbance CVE ([2]; A375 Run 3, 72 h, 100 μg/ml CDDP): 0.24
